Common to all, as to assay type: in vivo
The test system of one assay is Eimeria tenella. Put plainly: anticoccidial activity against Eimeria tenella in inoculated Peterson Cross Cockerels, medicated diet, survival. The following applies: 168 h; for responders at 120 µg/mL: 120 parts per million in diet; for responders at 15 µg/mL: 15 parts per million in diet; for responders at 20 µg/mL: 20 parts per million in diet. The source says:
(§1) For example, these compounds have anticoccidial activity against Eimeria tenella as shown by the following test: The animals were Peterson Cross Cockerels, 7 days old and of approximately equal size and weight. These cockerels were divided into groups and the groups were placed in separate cages with wire floors. Medicated and control diets were then presented to the groups of birds 2 days before inoculation while they were still in uncontaminated quarters. During the entire period of the tests, the birds ate and drank ad libitum. Control groups were maintained on a standard unmedicated commercial type chicken diet. Test groups were maintained on the same standard diet in which a measured concentration of test compound had been incorporated homogeneously. The cockerels were inoculated once orally with sporulated oocysts of Eimeria tenella. The number of oocysts inoculated directly into the crops of all cockerels in the tests was sufficient to produce high mortality in the untreated controls. […] Seven days following inoculation the tests were terminated and the mortality rate was recorded for each group. […] The tests represent very severe laboratory challenges, and lower concentrations than those shown would be effective under practical field conditions.

The test system of the next assay is coccidia. Nature of the assay: anti-coccidial activity, comparison with prior art compounds of Lieber et al.
In the next assay the test system is E. acervulina. Put plainly: anticoccidial activity against E. acervulina in chickens (survival, weight gain).
Description: as §1
(§2) The compounds of the present invention have high activity against other coccidial species in chickens. […] Methods used were essentially identical with those previously cited with appropriate modifications. Weight gains were determined 7 days after single experimental inoculations with the designated species of coccidia.

For another assay, the system named is Eimeria necatrix. Put plainly: anticoccidial activity against Eimeria necatrix in chickens (survival, weight gain). As to conditions: for % Survival / Weight gain: necatrix; for Weight gain: 7 days after inoculation.
Description: as §1, §2

A further assay concerns E. mivati. Put plainly: anticoccidial activity against E. mivati in chickens (survival, weight gain). As to conditions: for % Survival / Weight gain: mivati; for Weight gain: 7 days after inoculation.
Description: as §1, §2

A further assay concerns E. brunetti. Put plainly: anticoccidial activity against E. brunetti in chickens (survival, weight gain). As to conditions: for % Survival / Weight gain: brunetti; for Weight gain: 7 days after inoculation.
Description: as §1, §2

Another assay relates to E. maxima. Put plainly: anticoccidial activity against E. maxima in chickens (survival, weight gain). As to conditions: for % Survival / Weight gain: maxima; for Weight gain: 7 days after inoculation.
Description: as §1, §2

Setting [1] is: 30 parts per million in diet, 7 days after inoculation, read-out: % Survival.
The mark [2] stands for this setting: 10 parts per million in diet, 7 days after inoculation, read-out: % Survival.

The structures appear in SMILES notation. Counter-ions that a name gives are not always drawn. Like-named read-outs stand apart in the source and are kept apart here.

As for `N=C(NN=Cc1ccc(Cl)c(Cl)c1)NN=Cc1ccc(Cl)c(Cl)c1` [1,3-Bis(3,4-dichlorobenzylideneamino)guanidine Nitrate], the responders at 60 µg/mL in the assay with Eimeria tenella (read-out: % Survival) stood at 100%.

Take `N=C(NN=Cc1ccc(Br)cc1)NN=Cc1ccc(Br)cc1.O=[N+]([O-])O` [1,3-Bis(4-bromobenzylideneamino)guanidine Nitrate]: the “Activity (anti-coccidial)” value in the assay with coccidia (dosage 17 parts per million) was “active”. In addition, in the assay with Eimeria tenella (read-out: % Survival), the responders at 17 µg/mL was 80% and the responders at 35 µg/mL turned out to be 95%.

Consider `CN(N=Cc1ccc(Cl)cc1)C(=N)N(C)N=Cc1ccc(Cl)cc1` [1,3-Bis(4-chlorobenzylideneamino)-1,3-dimethylguanidine hydrobromide], for which, in the assay with Eimeria tenella (setting [1]), the responders at 30 µg/mL is 100%. Further, in the assay with Eimeria tenella (7 days after inoculation), the responders at 120 µg/mL turned out to be 100%.

As to `N=C(NN=Cc1ccc(Cl)cc1)NN=Cc1ccc(Cl)cc1.O=[N+]([O-])O` [1,3-Bis(4-chlorobenzylideneamino)guanidine nitrate], in the assay on coccidia (dosage 18 parts per million), the “Activity (anti-coccidial)” value is reported as “active”. In the assay on E. acervulina (acervulina, 45 ppm in diet), the “% Survival” value was 100%. The molecule further returned a Weight gain with E. acervulina (acervulina, 45 ppm in diet, 7 days after inoculation) of 99 % control. Besides, in the assay on Eimeria tenella (read-out: % Survival), the responders at 18 µg/mL was determined as 77%, the responders at 36 µg/mL came out at 96% and the responders at 54 µg/mL was determined as 100%.

On to `N=C(NN=Cc1ccc(Cl)cc1)NN=Cc1ccc(Cl)cc1` [1,3-Bis(4-chlorobenzylideneamino)guanidine], for which, in the assay on Eimeria necatrix (treated chickens), the “protection from mortality due to Eimeria necatrix” value is “completely protected”. Moreover, in the assay on E. mivati (treated chickens), the “protection from poor weight gains due to E. mivati” value is recorded as “completely protected”. The “protection from poor weight gains due to E. brunetti” value with E. brunetti (treated chickens) was “completely protected”. Further, the “protection from poor weight gains due to E. maxima” value in the assay on E. maxima (treated chickens) is “completely protected”. Besides, the “protection from poor weight gains due to E. acervulina” value with E. acervulina (treated chickens) is “completely protected”.

Regarding `N#Cc1ccc(C=NNC(=N)NN=Cc2ccc(C#N)cc2)cc1` [1,3-Bis(4-cyanobenzylideneamino)guanidine Nitrate], in the assay on Eimeria tenella (read-out: % Survival), the responders at 30 µg/mL came out at 80% and the responders at 60 µg/mL amounted to 100%.

Consider `N=C(NN=Cc1ccc(F)cc1)NN=Cc1ccc(F)cc1` [1,3-Bis(4-fluorobenzylideneamino)guanidine Nitrate], for which the responders at 93 µg/mL in the assay with Eimeria tenella (read-out: % Survival) was 80%.

Take `Cl.N=C(NN=Cc1ccc(I)cc1)NN=Cc1ccc(I)cc1` [1,3-Bis(4-iodobenzylideneamino)guanidine Hydrochloride]: the “Activity (anti-coccidial)” value with coccidia (dosage 30 parts per million) is “active”. Besides, in the assay with Eimeria tenella (setting [1]), the responders at 30 µg/mL came out at 55%.

The molecule `N=C(NN=Cc1ccc(C(F)(F)F)cc1)NN=Cc1ccc(C(F)(F)F)cc1` [1,3-Bis(4-trifluoromethylbenzylideneamino)guanidine hydrochloride] registered a responders at 120 µg/mL in the assay on Eimeria tenella (7 days after inoculation) of 100%.

Take `N=C(NN=Cc1ccc(OC(F)(F)F)cc1)NN=Cc1ccc(OC(F)(F)F)cc1` [1,3-bis(4-Trifluoromethoxybenzylideneamino)guanidine Hydrochloride]: in the assay on Eimeria tenella (read-out: % Survival), the responders at 5 µg/mL was determined as 80% and the responders at 10 µg/mL stood at 100%.

For the molecule `N=C(NNCc1ccc(Cl)cc1)NNCc1ccc(Cl)cc1` [1,3-bis(4-chlorobenzylamino)guanidine], in the assay on Eimeria tenella (setting [2]), the responders at 10 µg/mL came out at 90%. In the assay with Eimeria tenella (7 days after inoculation), this molecule displayed a responders at 15 µg/mL of 90% and a responders at 20 µg/mL of 100%.

Turning to `Cl.N=C(NN=Cc1ccc(Cl)cc1)NN=Cc1ccc(Cl)cc1` [1,3-bis(4-chlorobenzylideneamino)-guanidine hydrochloride], the “% Survival” value in the assay with E. mivati (15 ppm in diet), with E. mivati (30 ppm in diet), in the assay on E. mivati (45 ppm in diet), in the assay with E. brunetti (15 ppm in diet), with E. brunetti (30 ppm in diet) and in the assay with E. maxima (15 ppm in diet) was 100% throughout. The “% Survival” value with E. maxima (30 ppm in diet) and in the assay with E. maxima (45 ppm in diet) was 100% each time. Besides, the Weight gain amounted to 86 % control in the assay with E. mivati (15 ppm in diet); 91 % control in the assay on E. mivati (30 ppm in diet); 100 % control in the assay with E. mivati (45 ppm in diet); 100 % control in the assay on E. brunetti (15 ppm in diet); 95 % control in the assay on E. brunetti (30 ppm in diet); 101 % control in the assay on E. maxima (15 ppm in diet). The Weight gain in the assay on E. maxima (30 ppm in diet) was determined as 95 % control; in the assay on E. maxima (45 ppm in diet), 100 % control. Also, the “Activity (anti-coccidial)” value with coccidia (dosage 8.5 parts per million) is reported as “active”. Further, the responders at 8.5 µg/mL in the assay with Eimeria tenella (read-out: % Survival) was 45%. In addition, in the assay with Eimeria tenella (read-out: % Survival), the responders at 17 µg/mL was 75%. In the assay on Eimeria tenella (read-out: % Survival), the responders at 33 µg/mL turned out to be 100%.

For the molecule `N=C(NN=Cc1ccc(Cl)cc1)NN=Cc1ccc(Cl)cc1` [1,3-bis(4-chlorobenzylideneamino)guanidine methosulfate], in the assay with Eimeria necatrix (15 ppm in diet), the “% Survival” value came out at 100% and the Weight gain turned out to be 80 % control. In addition, in the assay on Eimeria necatrix (30 ppm in diet), the “% Survival” value was 100% and the Weight gain is given as 103 % control. The “Activity (anti-coccidial)” value in the assay on coccidia (dosage 20 parts per million) is listed as “active”. Besides, the responders at 20 µg/mL in the assay on Eimeria tenella (7 days after inoculation) came out at 59%. Moreover, the responders at 40 µg/mL with Eimeria tenella (40 parts per million in diet, 7 days after inoculation) is 90%. For the same molecule, in the assay on Eimeria tenella (60 parts per million in diet, 7 days after inoculation, read-out: % Survival), the responders at 60 µg/mL was 98%.

As for `N=C(NN=Cc1ccc(Cl)cc1)NNCc1ccc(Cl)cc1` [1-(4-Chlorobenzylamino)-3-(4-chlorobenzylideneamino)guanidine], the responders at 15 µg/mL in the assay with Eimeria tenella (7 days after inoculation) came out at 90%. For the same molecule, in the assay on Eimeria tenella (setting [1]), the responders at 30 µg/mL was determined as 100%.

On to `CC(=O)N=C(NN=Cc1ccc(Cl)cc1)NN=Cc1ccc(Cl)cc1` [2-acetyl-1,3-bis(4-chlorobenzylideneamino)guanidine], for which the responders at 5 µg/mL with Eimeria tenella (5 parts per million in diet, 7 days after inoculation, read-out: % Survival) is 67%. Moreover, the responders at 10 µg/mL with Eimeria tenella (setting [2]) was found to be 95%. Besides, the responders at 30 µg/mL in the assay on Eimeria tenella (setting [1]) is 100%.

On to `O=Cc1ccc2c(c1)OCO2` [9) piperonal, reference compound], for which, in the assay on coccidia (dosage 125 parts per million), the “Activity (anti-coccidial)” value was “inactive”.

Regarding `O=Cc1ccccc1O` [11) salicylaldehyde, reference compound], in the assay on coccidia (dosage 125 parts per million), the “Activity (anti-coccidial)” value is “inactive”.

`O=Cc1ccccc1O` [12) salicylaldehyde, reference compound]: the “Activity (anti-coccidial)” value in the assay on coccidia (dosage 200 parts per million) is “inactive”.

Consider `CC(=O)c1ccccc1` [14) acetophenone, reference compound], for which, in the assay on coccidia (dosage 250 parts per million), the “Activity (anti-coccidial)” value is “inactive”.

The record behind these values is patent publication US3992446A, “Substituted aminochlorobenzylamino guanidine compounds” (American Cyanamid Company, priority 1975, dated 1976).
